This note sets out measurements from patent publication US20170283378A1, “INDOLE DERIVATIVES FOR THE PREVENTION AND/OR TREATMENT OF DIABETES AND ASSOCIATED METABOLIC DISORDERS” (Consejo Superior de Investigaciones Cientificas (CSIC), priority 2014, published 2017).

The assay deals with AMPK. Kind of assay: AMPK activation measurements in cultured cells (Western Blot of pThr172 AMPK alpha and pSer79 ACC). Format: cell-based, human. The note with it: for activation of AMPK (anti-phosphoThr172 AMPK alpha, Western Blot) / phosphorylation of ACC substrate (anti-phosphoSer79ACC, Western Blot): HEK293 cells treated for 1 hour; for endogenous levels of AMPKα pT172: HEK293 cells, increasing doses, phenformin 5 mM as activation control; for activation of the AMPK complex: at the indicated doses (figures), cultured HEK293 cells. How it is done: AMPK activation measurements in cultured cells by means of compounds 7 and 16.
Cell line and treatments. The cell line that was used in the treatments with the different assayed reagents was HEK293T (human embryonic kidney cells). Cells were grown in DMEM (Dulbecco's Modified Eagle's Medium) with 25 mM of glucose supplemented with 10% of inactivated fetal bovine serum, 2 mM glutamine, 100 units/ml of penicillin and 100 μg/ml of streptomycin, in a humid atmosphere at 37° C. with 5% of CO2. Cells were grown on 60 mm (p. 60) plates to obtain 70-80% of confluence. Cells were washed in Krebs Ringer buffer (KRB: NaCI […], CaCl2 […], KH2PO4 0.5 mM, KCl 3 mM, NaHCO3 2.5 mM, MgSO40.5 mM, HEPES 10 mM pH 7.4, 95:5 O2/CO2) tempered at 37° C. and subsequently treated for 1 hour at 37° C. in a culture oven, adding the adequate quantities of 7 and 16 (5 mM stock in DMSO) dissolved in KRB/25 mM glucose to reach the final concentrations indicated in the figures. Phenformin 5 mM was used as an activation control.
Preparation of HEK293T cell extracts. After the corresponding treatments, the supernatant was removed and cells were quickly-frozen in liquid N2. The plates were processed one by one and kept in ice , firstly adding the cold lysis buffer. The composition of the buffer was as follows: Tris 10 mM pH 7.4, EDTA 15 mM pH 8.0, NaF 50 mM, Na4P2O7 15 mM, sacarose 0.6 M, 2-Mercaptoethanol 15 mM, a mixture of protease inhibitors without EDTA (Roche) and 1 mM PMSF. Cells were collected in a lysis buffer with the help of a scraper and were lysed, passing each sample through 24 G×⅝″ syringes four times. A small amount was reserved to measure the quantity of protein using the Bradford protein assay and loading buffer for electrophoresis was added to the rest and boiled for 5 min maintaining the samples at −20° C. until their use. The concentration of proteins was determined through the Bradford method using the Bio-Rad Bradford Protein Assay Reagent (BioRad).
Protein analysis by Western Blot. The protein extracts were analysed using SDS-PAGE in gels with 8% or 10% acrylamide and 1.5 mm thick. 30 µg of protein were loaded and transferred to a PVDF (Millipore) membrane for 1.5 hours at 100 V. Blockage was performed using 5% of skimmed milk in TBS-T for 1 hour at room temperature. Immunodetection was performed by incubating the primary antibody all night at 4° C. After three 10-minute washes at room temperature using TBS-T, they were incubated with their corresponding secondary antibody conjugated to HRP. After the three 10-minute washes at room temperature using TBS-T, the membranes were developed using ECL plus (Pierce) and processed using a FUJI LAS 3000 (Fujifilm) unit. The antibodies used were: anti-pAMPKαThr172, anti-AMPKβ1/β2, anti-ACC and anti-pACCser79 from the company Cell Signaling Technology (Danvers, Mass., USA) diluted 1:1000, and the HRP goat anti-rabbit secondary antibody from the company Santa Cruz Technology at a dilution of 1:5000 or 1:10000. The detection of bands with the anti-pAMPKαThr172 and anti-pACCser79 antibodies (AMPK substrate) with respect to their respective loading controls (anti-AMPKβ1/β2 and anti-ACC) was taken as an indicative of AMPK activation.

The mark [1] stands for this setting: concentrations between 12.5 and 50 μM, FIG. 1.
Where [2] appears, read: concentrations between 12.5 and 100 μM, FIG. 2.

As for `O=C(O)c1c(-c2ccc(-c3ccccc3O)cc2)c2ccccc2n1Cc1ccccc1` [compound 7, 1-benzyl-3-(2′-hydroxy-[1,1′-biphenyl]-4-yl)-1H-indole-2-carboxylic acid], the “endogenous levels of AMPKα pT172” value is on record as “increase in endogenous levels of AMPKα pT172” and the “activation of the AMPK complex” value is “capable of inducing the activation of the AMPK complex”. Further, under setting [1], the “activation of AMPK (anti-phosphoThr172 AMPK alpha, Western Blot)” value was “activates AMPK in a dose-dependent manner” and the “phosphorylation of ACC substrate (anti-phosphoSer79ACC, Western Blot)” value was “increase in phosphorylation”.
`O=C(O)c1[nH]c2ccccc2c1-c1ccc(-c2ccccc2O)cc1` [compound 16, 3-(2′-hydroxy-[1,1′-biphenyl]-4-yl)-1H-indole-2-carboxylic acid]: the “endogenous levels of AMPKα pT172” value is “increase in endogenous levels of AMPKα pT172” and the “activation of the AMPK complex” value is recorded as “capable of inducing the activation of the AMPK complex”. Also, under setting [2], the “activation of AMPK (anti-phosphoThr172 AMPK alpha, Western Blot)” value is “activates AMPK in a dose-dependent manner” and the “phosphorylation of ACC substrate (anti-phosphoSer79ACC, Western Blot)” value was “increase in phosphorylation”.
